How the values were obtained:
[1] = molecular target: GDP-bound NRAS wild-type protein (Homo sapiens, UniProt P01111); test: Binding to NRAS by surface plasmon resonance (SPR), KD and KD ratio to KRAS; conditions: ratio of KD value for GDP-bound NRAS wild-type protein to KD value for KRAS (SPR)
Method in brief: (§1)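 Recombinant RAS proteins bearing a biotinylated Avi tag and loaded with GDP served as the captured ligand, recaptured fresh every cycle. Binding responses were referenced to an uncoated surface and a buffer-only blank cycle. Dissociation constants were obtained by 1:1 model fitting at 30°C.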

[2] = molecular target: GDP-bound KRAS wild-type protein (Homo sapiens, UniProt P01116); test: Binding to KRAS by surface plasmon resonance (SPR), dissociation constant KD; conditions: Single Cycle Kinetics, 1:1 binding model
Method in brief: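 Read-out is KD from 1:1 fitting of single-cycle kinetics sensorgrams, blank-cycle and reference-surface corrected. Proteins were GDP-loaded, biotinylated Avi-fusions freshly captured each cycle at roughly 100–300 RU. Runs were at 30°C in HBS pH 7.4 with MgCl2, GDP and 4% DMSO.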

[3] = molecular target: HRAS wild-type protein (Homo sapiens, UniProt P01112); test: Binding to HRAS by surface plasmon resonance (SPR), KD and KD ratio to KRAS; conditions: ratio of KD value for HRAS wild-type protein to KD value for KRAS (SPR)
Method in brief: as §1

[4] = test system: human lung cancer strain NCI-H441; assay type: cell-based
Method in brief: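 Signal came from […] measured per well once the reagent was added. Beforehand, cells were cultured at 37°C and 5% carbon dioxide on a compound series serially diluted in dimethyl sulfoxide.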

Chain of HRAS wild-type protein (P01112 whole entry): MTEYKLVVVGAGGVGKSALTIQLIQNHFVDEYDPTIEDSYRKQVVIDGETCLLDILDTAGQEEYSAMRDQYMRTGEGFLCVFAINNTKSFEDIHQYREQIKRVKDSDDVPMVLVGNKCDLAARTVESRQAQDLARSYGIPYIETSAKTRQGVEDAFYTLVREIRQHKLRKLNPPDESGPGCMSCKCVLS
Chain of GDP-bound NRAS wild-type protein (P01111 whole entry): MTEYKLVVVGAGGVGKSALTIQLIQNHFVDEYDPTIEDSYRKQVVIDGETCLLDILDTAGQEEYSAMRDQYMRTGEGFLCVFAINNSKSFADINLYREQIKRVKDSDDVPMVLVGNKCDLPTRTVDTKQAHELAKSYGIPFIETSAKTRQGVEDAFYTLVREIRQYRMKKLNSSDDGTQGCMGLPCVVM
Chain of GDP-bound KRAS wild-type protein (P01116 1-188 isoform P01116-2): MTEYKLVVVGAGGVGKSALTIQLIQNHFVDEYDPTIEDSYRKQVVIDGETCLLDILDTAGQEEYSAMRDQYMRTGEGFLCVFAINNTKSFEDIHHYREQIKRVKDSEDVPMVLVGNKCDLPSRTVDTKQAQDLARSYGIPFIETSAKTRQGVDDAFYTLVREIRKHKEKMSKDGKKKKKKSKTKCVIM

Row | SMILES | NRAS /KRAS [1] | Kd [2] [nM] | HRAS /KRAS [3] | IC50 [4] [nM]
1 | CCO[C@@H]1C[C@H]2C(=O)NC3(CCC3)C(=O)N(C)[C@@H](C(CC)CC)C(=O)N(C)[C@H](C)CC(=O)N(C)[C@@H](CC(C)C)C(=O)N[C@@H]([C@@H](C)CC)C(=O)N(C)CC(=O)N(C)[C@H]3C/C=C\CCN(C3=O)[C@@H](Cc3ccc(F)cc3C)C(=O)N(C)CC(=O)N[C@@H](CCc3cc(F)c(C(F)(F)F)c(F)c3)C(=O)N2C1 [PP1524] | B (a compound having 3 or more and less than 10 is denoted as B) | 5.7 | B (a compound having 3 or more and less than 10 is denoted as B) | 439
2 | CCO[C@@H]1C[C@H]2C(=O)NC3(CCC3)C(=O)N(C)[C@@H](C(CC)CC)C(=O)N(C)[C@H](C)CC(=O)N(C)[C@@H](CC(C)C)C(=O)N[C@@H]([C@@H](C)CC)C(=O)N(C)CC(=O)N(C)[C@H]3C/C=C\CCN(C3=O)[C@@H](Cc3ccc(F)cc3)C(=O)N(C)CC(=O)N[C@@H](CCc3cc(F)c(C(F)(F)F)c(F)c3)C(=O)N2C1 [PP1525] | A (a compound having 10 or more and less than 20 is denoted as A) | 1.7 | A (a compound having 10 or more and less than 20 is denoted as A) | 132
3 | CCO[C@@H]1C[C@H]2C(=O)NC3(CCC3)C(=O)N(C)[C@@H](C(CC)CC)C(=O)N(C)[C@H](C(=O)N3CCOCC3)CC(=O)N(C)[C@@H](CC3CC3)C(=O)N[C@@H]([C@@H](C)CC)C(=O)N(C)CC(=O)N(C)[C@H]3C/C=C\CCN(C3=O)[C@@H](Cc3ccc(F)cc3)C(=O)N(C)CC(=O)N[C@@H](CCc3cc(F)c(C(F)(F)F)c(F)c3)C(=O)N2C1 [PP1527] | A (a compound having 10 or more and less than 20 is denoted as A) | 0.95 | A (a compound having 10 or more and less than 20 is denoted as A) | 143
4 | CCO[C@@H]1C[C@H]2C(=O)NC3(CCC3)C(=O)N(C)[C@@H](C3CCCC3)C(=O)N(C)[C@H](C(=O)N(C)C)CC(=O)N(C)[C@@H](CC3CC3)C(=O)N[C@@H]([C@@H](C)CC)C(=O)N(C)CC(=O)N(C)[C@H]3C/C=C\CCN(C3=O)[C@@H](Cc3ccc(F)cc3C)C(=O)N(C)CC(=O)N[C@@H](CCc3cc(F)c(C(F)(F)F)c(F)c3)C(=O)N2C1 [PP1528] | A (a compound having 10 or more and less than 20 is denoted as A) | 0.2 | B (a compound having 3 or more and less than 10 is denoted as B) | 45.6
5 | C=CCCCCN(C)C(=O)[C@@H]1CC(=O)N(C)[C@@H](CC2CC2)C(=O)N[C@@H](CC=C)C(=O)N(C)CC(=O)N(C)[C@H]2C/C=C\CCN(C2=O)[C@@H](Cc2ccc(C(F)(F)F)cc2)C(=O)N(C)CC(=O)N[C@@H](CCc2cc(F)c(C(F)(F)F)c(F)c2)C(=O)N2C[C@H](OCC)C[C@H]2C(=O)NC2(CCC2)C(=O)N(C)[C@@H](C2CCCC2)C(=O)N1C [PP1554] | A (a compound having 10 or more and less than 20 is denoted as A) | 2.7 | A (a compound having 10 or more and less than 20 is denoted as A) | 121
6 | C=CC[C@@H]1NC(=O)[C@H](CC2CC2)N(C)C(=O)C[C@@H](C(=O)N(C)CC=C)N(C)C(=O)[C@H](C2CCCC2)N(C)C(=O)C2(CCC2)NC(=O)[C@@H]2C[C@@H](OCC)CN2C(=O)[C@H](CCc2cc(F)c(C(F)(F)F)c(F)c2)NC(=O)CN(C)C(=O)[C@H](Cc2ccc(C(F)(F)F)cc2)N2CC/C=C\C[C@@H](C2=O)N(C)C(=O)CN(C)C1=O [PP1557] | A (a compound having 10 or more and less than 20 is denoted as A) | 1.2 | A (a compound having 10 or more and less than 20 is denoted as A) | 86.3
7 | CCO[C@@H]1C[C@H]2C(=O)NC3(CC(C)(C)C3)C(=O)N(C)[C@@H](C3CCCC3)C(=O)N(C)[C@H](C(=O)N(C)C)CC(=O)N(C)[C@@H](CC3CCCC3)C(=O)N[C@@H]([C@@H](C)CC)C(=O)N(C)CC(=O)N(C)[C@H]3C/C=C\CCN(C3=O)[C@@H](Cc3ccc(C(F)(F)F)cc3)C(=O)N(C)CC(=O)N[C@@H](CCc3ccc(C(F)(F)F)c(OC)c3)C(=O)N2C1 [PP1565] | A (a compound having 10 or more and less than 20 is denoted as A) | 0.11 | B (a compound having 3 or more and less than 10 is denoted as B) | 6.5
8 | CCO[C@@H]1C[C@H]2C(=O)NC3(CCC3)C(=O)N(C)[C@@H](C3CCCC3)C(=O)N(C)[C@H](C(=O)N(C)CC)CC(=O)N(C)[C@@H](CC3CCCC3)C(=O)N[C@@H]([C@@H](C)CC)C(=O)N(C)CC(=O)N(C)[C@H]3C/C=C\CCN(C3=O)[C@@H](Cc3ccc(C(F)(F)F)cc3)C(=O)N(C)CC(=O)N[C@@H](CCc3ccc(C(F)(F)F)c(OC)c3)C(=O)N2C1 [PP1573] | A (a compound having 10 or more and less than 20 is denoted as A) | 0.12 | A (a compound having 10 or more and less than 20 is denoted as A) | 5.2
9 | CCCC[C@H]1C(=O)N[C@@H]([C@@H](C)CC)C(=O)N(C)CC(=O)N(C)[C@H]2C/C=C\CCN(C2=O)[C@@H](Cc2ccc(C(F)(F)F)cc2)C(=O)N(C)CC(=O)N[C@@H](CCc2cc(F)c(C(F)(F)F)c(F)c2)C(=O)N2C[C@H](OCC)C[C@H]2C(=O)NC2(CCC2)C(=O)N(C)[C@@H](C2CCCC2)C(=O)N(C)[C@H](C(=O)N(CC)CC)CC(=O)N1C [PP1576] | AA (a compound having 20 or more is denoted as AA) | 0.14 | A (a compound having 10 or more and less than 20 is denoted as A) | 7.6
10 | CCCOC[C@H]1C(=O)N[C@@H]([C@@H](C)CC)C(=O)N(C)CC(=O)N(C)[C@H]2C/C=C\CCN(C2=O)[C@@H](Cc2ccc(C)cc2)C(=O)N(C)CC(=O)N[C@@H](CCc2cc(F)c(C(F)(F)F)c(F)c2)C(=O)N2C[C@H](OCC)C[C@H]2C(=O)NC2(CC(C)(C)C2)C(=O)N(C)[C@@H](C2CCCC2)C(=O)N(C)[C@H](C(=O)N(C)CC)CC(=O)N1C [PP1577] | B (a compound having 3 or more and less than 10 is denoted as B) | 0.17 | B (a compound having 3 or more and less than 10 is denoted as B) | 6.7
11 | CCCOC[C@H]1C(=O)N[C@@H]([C@@H](C)CC)C(=O)N(C)CC(=O)N(C)[C@H]2C/C=C\CCN(C2=O)[C@@H](Cc2ccc(C)cc2)C(=O)N(C)CC(=O)N[C@@H](CCc2cc(F)c(C(F)(F)F)c(F)c2)C(=O)N2C[C@H](OCC)C[C@H]2C(=O)NC2(CC(C)(C)C2)C(=O)N(C)[C@@H](C2CCCC2)C(=O)N(C)[C@H](C(=O)N(CC)CC)CC(=O)N1C [PP1578] | A (a compound having 10 or more and less than 20 is denoted as A) | 0.2 | A (a compound having 10 or more and less than 20 is denoted as A) | 12.6
12 | CCO[C@@H]1C[C@H]2C(=O)NC3(CC(C)(C)C3)C(=O)N(C)[C@@H](C3CCCC3)C(=O)N(C)[C@@H](C(C)C)CC(=O)N(C)[C@@H](CC3CC3)C(=O)N[C@@H]([C@@H](C)CC)C(=O)N(C)CC(=O)N(C)[C@H]3C/C=C\CCN(C3=O)[C@@H](Cc3ccc(C(F)(F)F)cc3)C(=O)N(C)CC(=O)N[C@@H](CCc3cc(F)c(C(F)(F)F)c(F)c3)C(=O)N2C1 [PP1594] | A (a compound having 10 or more and less than 20 is denoted as A) | 0.71 | A (a compound having 10 or more and less than 20 is denoted as A) | 48.8
13 | CCO[C@@H]1C[C@H]2C(=O)NC3(CCC3)C(=O)N(C)[C@@H](C(CC)CC)C(=O)N(C)[C@H](C3CCC3)CC(=O)N(C)[C@@H](CC3CC3)C(=O)N[C@@H]([C@@H](C)CC)C(=O)N(C)CC(=O)N(C)[C@H]3C/C=C\CCN(C3=O)[C@@H](Cc3ccc(C(F)(F)F)cc3)C(=O)N(C)CC(=O)N[C@@H](CCc3cc(F)c(C(F)(F)F)c(F)c3)C(=O)N2C1 [PP1636] | A (a compound having 10 or more and less than 20 is denoted as A) | 2.8 | A (a compound having 10 or more and less than 20 is denoted as A) | 95.2
14 | CCCN(C)C(=O)[C@@H]1CC(=O)N(C)[C@@H](CC)C(=O)N[C@@H]([C@@H](C)CC)C(=O)N(C)CC(=O)N(C)[C@H]2C/C=C\CCN(C2=O)[C@@H](Cc2ccc(C(F)(F)F)cc2)C(=O)N(C)CC(=O)N[C@@H](CCc2ccc(C(F)(F)F)c(OC)c2)C(=O)N2C[C@H](OCC)C[C@H]2C(=O)NC2(CC(C)(C)C2)C(=O)N(C)[C@@H](C2CCCC2)C(=O)N1C [PP1654] | A (a compound having 10 or more and less than 20 is denoted as A) | 0.097 | A (a compound having 10 or more and less than 20 is denoted as A) | 2.5

From patent EP4603105A1, “PHARMACEUTICAL COMPOSITION CONTAINING CYCLIC COMPOUND HAVING SELECTIVE KRAS INHIBITORY EFFECT AGAINST HRAS AND NRAS” (CHUGAI SEIYAKU KABUSHIKI KAISHA, priority 2022, dated 2024)
